Common to all, as to type: cell-based
The subject of test [1] is HTB 72 (Melanoma) cancer cell line. The test can be described thus: inhibition of cancer cell lines in vitro: HTB 72. The settings on record: about 2 micrograms per milliliter. The source says: (§1) 15,16-dihyrotanshinone I is also a potent inhibitor of several cancer cell lines in vitro, including the SW480 (Colon Cancer) and the HTB 72 (Melanoma) cancer cell lines. At a very low concentration of about 2 micrograms per milliliter, 100% inhibitions are achieved.

Test [2] deals with Bovine Cardio-Pulmonary Artery Endothelial (CPAE) cells. Nature of the test: endothelial cell proliferation assay (cellular acid phosphatase readout). On the procedure:
An endothelial cell proliferation assay was carried out according to the procedures of Connally, et al. (1986) (Anal. Biochem. 152:136-140) with modifications (Liang and Wong (2000) ANGIOGENESIS: FROM THE MOLECULAR TO INTEGRATIVE PHARMACOLOGY, edited by Maradoudakis, Kluwer Academic/Plenum Publishers, New York, pp 209-223). Bovine Cardio-Pulmonary Artery Endothelial (CPAE) cells acquired from American Type Culture Collection (ATCC; ATCC No. CCL-209) were grown to nearly 95% confluence in MEM-10E. The cells were released from the tissue culture flask with a 0.25% trypsin solution and plated in 24-well tissue culture plates in the same culture medium at a density of 10,000 cells/well. After the plates were incubated for 8 hours at 37° C. in a 5% carbon dioxide incubator, assay samples and control samples were added. Each sample was loaded in two different wells at 100 μl/well to ensure reproducibility. After incubation with the sample for 60 hours, the medium was aspirated, and the number of cells was measured on the basis of the calorimetric measurement of cellular acid phosphatase.

Test [3] has as its system SW480 (Colon Cancer) cancer cell line. Nature of the test: inhibition of cancer cell lines in vitro: SW480. The following applies: about 2 micrograms per milliliter.
Description: as §1

The structures appear in SMILES notation.

Take `Cc1cccc2c3c(ccc12)C1=C(C(=O)C3=O)C(C)CO1` (stereo not shown) [15,16-dihydrotanshinone I, 15,16-dihydrotanshinone]: the “inhibition of HTB 72 (Melanoma) cell line” value in test [1] is reported as 100%. Moreover, the inhibition at 50 µg/mL in test [2] (Bos taurus, Endothelial cell, 50 μg/ml, 60 hours incubation, read-out: endothelial cell growth inhibition) came out at 84.4%. In addition, the “inhibition of endothelial cell proliferation, concentration-dependent study (FIG. 1)” value in test [2] (another 15,16-dihydrotanshinone I sample, result in words) is on record as “inhibits endothelial cell proliferation in a concentration-dependent manner”. Also, the “inhibition of SW480 (Colon Cancer) cell line” value in test [3] is 100%.

The record behind these values is patent US20090093539A1, “ANTI-ANGIOGENIC COMPOSITIONS AND METHODS OF USE THEREOF” (priority 2007, published 2009).
